{"source": "paper PMC11373361", "about": "“Expanding the inhibitor space of the WWP1 and WWP2 HECT E3 ligases” (Journal of Enzyme Inhibition and Medicinal Chemistry, 2024)", "origin": "cited, not measured here", "key": {"[1]": {"system": "WWP1", "parameters": "method as in PMID 31097636", "conditions": "cited from earlier work"}, "[2]": {"system": "WWP2", "parameters": "method as in PMID 30207403", "conditions": "cited from earlier work"}}, "data": [{"smiles": "CCc1ccc(C=CC(=O)Nc2ccc(C(C)=O)cc2)o1", "note": "[Heclin]", "values": [{"measurement": "IC50", "setting": "[1]", "value": 6.9, "unit": "µM"}]}, {"smiles": "COCCn1c2nc(=O)n(-c3ccccc3)c(=O)c-2nc2ccccc21", "note": "[NSC-288387]", "values": [{"measurement": "IC50", "setting": "[2]", "value": 2300, "unit": "nM"}]}]}
